{"source": "patent US11000524B2", "about": "“Tyrosine kinase inhibition as a treatment for epilepsy” (Iowa State University Research Foundation, Inc., priority 2016, dated 2021)", "key": {"[1]": {"tested_on": "hippocampal in vitro model", "settings": "Salter and Kalia, 2004, Sanna et al., 2000; cited from earlier work"}, "[2]": {"tested_on": "rat kainate model of epilepsy", "experiment": "Saracatinib post-treatment in the rat kainate model of epilepsy, 4 months video-EEG study", "assay_type": "in vivo, rats", "settings": "four months monitoring", "experimental": "Fifteen rats (n=8 for control and 7 for SAR) were studied over the course of four months. Treatments and methods used in Example 12 were followed for this Example except for the extended time and the SAR/vehicle was administered 2 h after stopping the seizures (SE) with diazepam. The SAR was given at 25 mg/kg, oral twice daily for three days followed by daily for next four days. The drug was NOT administered after 7-day time point."}, "[3]": {"tested_on": "kainate-induced SE in C57BL/6J mice", "experiment": "Saracatinib pretreatment 4 h before kainate-induced status epilepticus (behavioral seizure scoring, modified Racine scale)", "assay_type": "in vivo", "settings": "for mortality during SE / latency to the onset of first CS: saracatinib 25 mg/kg oral 4 h prior to SHD kainate 25 mg/kg i.p.; for mortality during SE: about 20% in vehicle group", "experimental": "We tested Fyn knockout mice (fyn^−/−), bred on C57BL/6J hybrid background mouse (fyn^+/+), and in wildtype C57BL/6J mice treated with the fyn kinase inhibitor, Saracatinib ([…], 25 mg/kg, oral, single dose) 4 h prior to the induction of SE with KA (5 mg/kg, i.p. at 30 min intervals or as a single high dose of 25 mg/kg). Two hours after the established SE, the behavioral SE was terminated with diazepam (10 mg/kg, i.p.). The animals were euthanized with pentobarbitone (100 mg/kg, i.p.) at 4 h, 24 h and 7d (for IHC & WB) and 4 weeks (video-EEG group) post-SE. The brain, serum, and cerebrospinal fluid (CSF) were collected for various analyses. […] We examined the time-dependent activation of fyn in microglial cells and initiation of neuro-inflammatory and neurodegenerative mechanisms in the hippocampus at 4 h, 24 h and 7 day time points post-SE. We also performed electroencephalographic (EEG) analysis to determine the spike rate and SRS frequency.\nThirty C57BL/6J mice were used for the saracatinib experiment. In this experiment, 15 mice were treated with saracatinib (25 mg/kg, oral gavage as a single dose) at 4 h prior to a single high dose (SHD) of kainate (25 mg/kg, i. p), while the remaining 15 mice were given the vehicle [0.5% hydroxypropyl methylcellulose in 0.1% tween 80] 4 h prior to kainate.\nAll animals administered with kainate were subjected to video recording. The seizures were staged and the SE was scored by direct observation of animals during the 2 h SE and exact duration of each stage of seizure was calculated. The video recordings were used for secondary analysis and for independent verification of seizures by two different personnel who were not involved in direct scoring during the experiments. The personnel who did the behavioral analysis were blind to the experimental groups. The behavioral seizures were scored based on modified Racine scale from stage 1 to 5 as described previously (Beamer et al., 2012; Puttachary et al., 2015b; Racine, 1972; Tse et al., 2014). Briefly, the staging was as follows: stage 1, absence-like immobility; stage-2, hunching with facial or manual automatisms evident from brisk movement of vibrissae and repeated grooming of the face; stage 3, rearing with forelimb clonus and facial or manual automatisms; stage 4, repeated rearing with continuous forelimb clonus and falling; and stage-5, generalized tonic clonic convulsions with lateral recumbence or jumping and/or wild running followed by generalized convulsions. Stage 1 and stage 2 were categorized as non-convulsive seizures (NCS) and stage ≥3 as convulsive seizures (CS) (Beamer et al., 2012; Puttachary et al., 2015b; Tse et al., 2014). The latency to the onset of CS and the duration of seizures were analyzed for each animal within a group as described previously (Puttachary et al., 2015b; Tse et al., 2014). The duration of CS is the total time spent by an animal in stage ≥3 during the 2 h of established SE until the diazepam was administered. Since a very few animals reached stage 5 in the saracatinib pretreated group and in the fyn^−/− mice, we considered stage ≥3 as the starting point for 2 h established SE. The data were analyzed and the severity of seizures, duration of CS, latency to CS onset, and mortality rate were compared between the groups.\nIn all kainate-treated animals, the behavior seizures were terminated with diazepam (10 mg/kg, i.p.) at 2 h after the first onset of convulsive seizure. The 2 h duration between the onset of convulsive seizure and the diazepam treatment was considered as 2 h established SE. During this period, all wildtype control mice had continuous convulsive seizures for >30 min. All kainate-treated animals received 1 mL of Ringer's lactate solution (s.c.) twice a day for three days to enable them to recover from dehydration and the lost bodyweight due to SE."}, "rat kainate model of TLE": {"tested_on": "rat kainate model of TLE", "experiment": "Saracatinib post-treatment in the rat kainate model of TLE, 28 days continuous video-EEG", "assay_type": "in vivo, Sprague Dawley rats", "settings": "for rats that did not develop epilepsy (of seven treated): 25 mg/kg oral from 2 h post-diazepam, twice daily 3 days then daily 4 days", "experimental": "Rats were used in the following example. The rats were treated as per the materials and methods of Examples 2-10 except for the following. Fourteen rats were used and implanted with telemetry device 10 days prior to the induction of SE, with RLD of kainate, as described previously (Puttachary et al., 2016b). The telemetry device used was CTA-F40 PhysioTel™ telemetry device (Data Science International, Minneapolis, USA) for video-EEG recording.\nDisabling the Fyn kinase function, either by pretreatment with saracatinib or fyn KO, prior to SE induction impacts the initial severity of SE and thus compromises the epileptogenic events. Therefore, we tested the effect of Fyn kinase inhibition with the saracatinib on epileptogenesis after the induction of SE in the rat kainate model of TLE. To mimic human TLE from translational view point, the rat kainate model is more suitable in terms of progressive nature of the disease since the frequency of spontaneous CS consistently increases over time in rats in contrast to the mouse kainate model (Puttachary et al., 2015b and 2016b). Therefore, we tested the saracatinib in the rat kainate model after terminating the behavioral SE with diazepam. The saracatinib (25 mg/kg, oral) was administered at 2 h post-diazepam and repeated twice daily for first three days followed by a single dose daily for the next four days during the first week of post-SE period. The treatment regimen was chosen based on increase in Fyn and PKCδ levels during the first week of post-SE in the mouse model."}, "[4]": {"experiment": "LC-MS of saracatinib in hippocampal tissue (blood brain barrier crossing)", "assay_type": "in vivo, C57BL/6J mice", "experimental": "For the LC-MS the optimum dose of saracatinib for our experiment was based on the published literature (Green et al., 2009; Hannon et al., 2010; Liu et al., 2012; Yang et al., 2010). […] The mice hippocampal tissues were homogenized in ˜0.2 mL 1:1 methanol:water using bullet blender. An additional 125 μL HPLC grade water was added to the homogenized samples. This was followed by three similar successive extractions with 375 μL 3:1 acetonitrile:water. The homogenate was sonicated for 10 min in a sonication water bath. The sample was pelleted by centrifugation at 13,000 g for 7 min and the supernatant was collected after each extraction and the samples were pooled. […]\nThe LC-MS analysis for saracatinib was conducted using an Agilent Technologies 1290 Infinity Binary Pump UHPLC system coupled to an Agilent Technologies 6540 UHD Accurate-Mass Q-TOF mass spectrometer in high resolution mode ([…]) and scanning m/z 100-1700. […] Saracatinib detection is represented by extracted ion chromatogram (EIC) using a 10 ppm extraction window and was analyzed (FIG. 1E) using Agilent Mass Hunter Qualitative Analysis B.07.00 software. The X-axis on the EIC represents retention time and the Y-axis represents the abundance of ions detected. Saracatinib concentrations were observed as the area of the EIC peaks and was calculated based on the linear curve of the observed peak areas of standards. […]"}, "[5]": {"settings": "saracatinib 25 mg/kg oral single dose 4 h prior to kainate, vs vehicle, 2 h established SE"}}}
{"smiles": "CC(C)(C)n1nc(-c2ccc(Cl)cc2)c2c(N)ncnc21", "note": "[PP2]", "values": [{"measurement": "frequency of epileptiform discharges", "setting": "[1]", "value": "reduces frequency of epileptiform discharges"}]}
{"smiles": "CN1CCN(CCOc2cc(OC3CCOCC3)c3c(Nc4c(Cl)ccc5c4OCO5)ncnc3c2)CC1", "note": "[saracatinib, N-(5-chloro-1,3-benzodioxol-4-yl)-7-[2-(4-methylpiperazin-1-yl)ethoxy]-5-(oxan-4-yloxy)quinazolin-4-amine]", "values": [{"measurement": "rats in which development of epilepsy was completely prevented (of seven)", "setting": "[2]; 25 mg/kg oral twice daily 3 days then daily 4 days", "value": "four out of seven"}, {"measurement": "animals not responding", "setting": "[2]", "value": "one animal did not respond"}, {"measurement": "seizures in the other animals", "setting": "[2]", "value": "significantly reduced seizures"}, {"measurement": "mice that reached stage 5 seizure", "setting": "[3]; SHD kainate 25 mg/kg, 67% in vehicle group", "value": 7, "unit": "%"}, {"measurement": "mortality during SE", "setting": "[3]", "value": "no mortality"}, {"measurement": "mortality during SE", "setting": "[3]; listed as SAR", "value": "reducing seizure severity and morality rate"}, {"measurement": "latency to the onset of first CS", "setting": "[3]; vs vehicle", "value": "increased latency"}, {"measurement": "latency to the onset of first CS", "setting": "[3]; vs vehicle, listed as SAR", "value": "increasing the latency of seizure onset"}, {"measurement": "duration of convulsive seizures (CS)", "setting": "[3]; [5]", "value": "significant reduction"}, {"measurement": "seizure severity", "setting": "[3]; [5]", "value": "significant reduction"}, {"measurement": "seizure severity", "setting": "[3]; saracatinib 25 mg/kg oral single dose 4 h prior to kainate, vs vehicle, 2 h established SE, listed as SAR", "value": "reducing seizure severity"}, {"measurement": "rats that did not develop epilepsy (of seven treated)", "setting": "rat kainate model of TLE; 28 d post-SE", "value": "four out of seven"}, {"measurement": "rats that did not develop epilepsy (of seven treated)", "setting": "rat kainate model of TLE; 28 d post-SE, listed as SAR", "value": "four"}, {"measurement": "epileptiform spike counts / spiking frequency vs vehicle", "setting": "rat kainate model of TLE; 28 d post-SE, video-EEG", "value": "significantly reduced"}, {"measurement": "number of spontaneous CS vs vehicle", "setting": "rat kainate model of TLE; 28 d post-SE, video-EEG", "value": "significantly reduced"}, {"measurement": "number of spontaneous CS vs vehicle", "setting": "rat kainate model of TLE; 28 d post-SE, video-EEG, listed as SAR", "value": "significant reduction"}, {"measurement": "initial SE severity vs vehicle group", "setting": "rat kainate model of TLE; before treatment (post-SE dosing)", "value": "no significant difference"}, {"measurement": "rats not responding to treatment", "setting": "rat kainate model of TLE; of seven treated rats", "value": "one rat did not respond"}, {"measurement": "number of spontaneous CS in a month (two rats)", "setting": "rat kainate model of TLE; two of seven treated rats, >24 episodes in vehicle group", "value": "< 10"}, {"measurement": "crossing of the blood brain barrier (BBB)", "setting": "[4]; LC-MS of hippocampus after 25 mg/kg oral", "value": "crossed the BBB"}, {"measurement": "persistence in hippocampus, 8 h compared to 28 h", "setting": "[4]; LC-MS, FIG. 1F", "value": "persisted in the hippocampus at higher levels at 8 h post-SE when compared to 28 h post-administration"}]}
